This passage reports pest or weed control results from US20050176784A1, “Malononitrile compounds and their use as pesticides” (priority 2002, published 2005).

What all share (type): in vivo
For one assay, the system named is Musca domestics. The assay is described as follows: Test Example 3: filter paper with sucrose bait, Musca domestica imagoes. The conditions noted are these: 0.7 ml on filter paper, ten female imagoes, after 24 hours, read-out: rate of dead pests. As for the experimental part:
The formulation obtained according to Formulation Example 5 using the present invention compounds (1), (2), (4), (8), (9), (10), (11), (13), (14) and (15) respectively, was diluted with water so that the active ingredient concentration came to 500 ppm to prepare a pesticidal solution for test.
On the bottom of a polyethylene cup having a diameter of 5.5 cm, a filter paper having the same diameter was laid, and 0.7 ml of the above pesticidal solution for test was added dropwise on the filter paper, followed by putting 30 mg of sucrose on it uniformly as a bait. Ten female Musca domestics imagoes were set free in the polyethylene cup and covered it with a lid. After 24 hours, the number of surviving Musca domestics was examined and the rate of dead pests was calculated.

The test system of the next assay is Blattella germanica. The assay is described as follows: Test Example 4: filter paper with sucrose bait, Blattella germanica imagoes. The conditions noted are these: 144 h, 0.7 ml on filter paper, two male imagoes, after 6 days, read-out: rate of dead pests. On the procedure: The formulation obtained according to Formulation Example 5 using the present invention compounds (1), (4), (8), (9), (11), (12), (13) and (14) respectively, was diluted with water so that the active ingredient concentration came to 500 ppm to prepare a pesticidal solution for test.
On the bottom of a polyethylene cup having a diameter of 5.5 cm, a filter paper having the same diameter was laid, and 0.7 ml of the above pesticidal solution for test was added dropwise on the filter paper, followed by putting 30 mg of sucrose on it uniformly as a bait. Two male Blattella germanica imagoes were set free in the polyethylene cup and covered it with a lid. After 6 days, the number of surviving Blattella germanica was examined and the rate of dead pests was calculated.

A further assay concerns Culex pipiens pallens. The assay is described as follows: Test Example 5: larvae in treated water, Culex pipiens pallens. The conditions noted are these: 24 h, active ingredient concentration 3.5 ppm in water, twenty last-instar larvae, after one day, read-out: rate of dead pests. As for the experimental part:
The formulation obtained according to Formulation Example 5 using the present invention compounds (3), (4), (8), (9), (10), (11), (12), (13), (14) and (15) respectively, was diluted with water so that the active ingredient concentration came to 500 ppm to prepare a pesticidal solution for test. 0.7 ml of above pesticidal solution for test was added to 100 ml of ion exchanged water (active ingredient concentration: 3.5 ppm). Twenty last-instar larvae of Culex pipiens pallens were set free in the solution. After one day, the number of surviving Culex pipiens pallens was examined and the rate of dead pests was calculated.

With `N#CC(C#N)(CCC(F)(F)F)Cc1ccc(F)nc1` [Compound 13, 2-((6-fluoro-3-pyridyl)methyl)-2-(3,3,3-trifluoropropyl)malononitrile], the figures for the pest or weed control at 500 ppm in the assay with Musca domestics and with Blattella germanica were ≥ 90% and 100%, respectively. Moreover, the pest or weed control at 3.5 ppm in the assay with Culex pipiens pallens is 100%.

Turning to `C#Cc1ccc(CC(C#N)(C#N)CCC(F)(F)F)cn1` [Compound 11, 2-((6-ethynyl-3-pyridyl)methyl)-2-(3,3,3-trifluoropropyl)malononitrile], the figures for the pest or weed control at 500 ppm with Musca domestics and in the assay on Blattella germanica were ≥ 90% and 100%, respectively. In addition, the pest or weed control at 3.5 ppm in the assay with Culex pipiens pallens stood at 100%.

As for `N#CC(C#N)(CCC(F)(F)F)Cc1ccc(Br)nc1` [Compound 10, 2-((6-bromo-3-pyridyl)methyl)-2-(3,3,3-trifluoropropyl)malononitrile], in the assay with Musca domestics, the pest or weed control at 500 ppm is ≥ 90%. The pest or weed control at 3.5 ppm with Culex pipiens pallens came to 100%.

As for `N#CC(C#N)(CCC(F)(F)F)Cc1ccc(C(F)(F)F)nc1` [Compound 9, 2-((6-(trifluoromethyl)-3-pyridyl)methyl)-2-(3,3,3-trifluoropropyl)malononitrile], the pest or weed control at 500 ppm in the assay on Musca domestics was ≥ 90%; with Blattella germanica, 100%. Also, in the assay on Culex pipiens pallens, the pest or weed control at 3.5 ppm is 100%.

As for `N#CC(C#N)(CCC(F)(F)F)Cc1cccc(Cl)n1` [Compound 8, 2-((6-chloro-2-pyridyl)methyl)-2-(3,3,3-trifluoropropyl)malononitrile], the pest or weed control at 500 ppm in the assay on Musca domestics is ≥ 90%; in the assay with Blattella germanica, 100%. Also, in the assay on Culex pipiens pallens, the pest or weed control at 3.5 ppm stood at 100%.

As for `N#CC(C#N)(CCC(F)(F)F)Cc1cnc(Cl)c(Cl)c1` [Compound 15, 2-((5,6-dichloro-3-pyridyl)methyl)-2-(3,3,3-trifluoropropyl)malononitrile], in the assay on Musca domestics, the pest or weed control at 500 ppm was ≥ 90%. Moreover, the pest or weed control at 3.5 ppm in the assay on Culex pipiens pallens was determined as 100%.

Take `N#CC(C#N)(CCC(F)(F)F)Cc1ccc(Cl)nc1` [Compound 4, 2-((6-Chloro-3-pyridyl)methyl)-2-(3,3,3-trifluoropropyl)malononitrile]: the pest or weed control at 500 ppm with Musca domestics is ≥ 90%; in the assay with Blattella germanica, 100%. Also, the pest or weed control at 3.5 ppm in the assay with Culex pipiens pallens came to 100%.

For `N#CC(C#N)(CCC(F)=C(F)F)Cc1ccc(Cl)nc1` [Compound 3, 2-((6-Chloro-3-pyridyl)methyl)-2-(3,4,4-trifluoro-3-butenyl)malononitrile], the pest or weed control at 3.5 ppm with Culex pipiens pallens stood at 100%.

For the compound `C=CCC(C#N)(C#N)C(C#N)c1ccc(Cl)nc1` (stereo not shown) [Compound 2, 1-(6-Chloro-3-pyridyl)-1,2,2-tricyano-4-pentene], the pest or weed control at 500 ppm in the assay with Musca domestics is ≥ 90%.

In the case of `C=CCC(C#N)(C#N)Cc1ccc(Cl)nc1` [Compound 1, 2-allyl-2-((6-Chloro-3-pyridyl)methyl)malononitrile], the pest or weed control at 500 ppm was ≥ 90% in the assay on Musca domestics and 100% in the assay with Blattella germanica.

Regarding `N#CC(C#N)(CCC(F)(F)F)Cc1cccc(Br)n1` [Compound 14, 2-((6-bromo-2-pyridyl)methyl)-2-(3,3,3-trifluoropropyl)malononitrile], the pest or weed control at 500 ppm in the assay with Musca domestics was ≥ 90%; with Blattella germanica, 100%. Besides, the pest or weed control at 3.5 ppm in the assay with Culex pipiens pallens came out at 100%.

With `N#Cc1ccc(CC(C#N)(C#N)CCC(F)(F)F)cn1` [Compound 12, 2-((6-cyano-3-pyridyl)methyl)-2-(3,3,3-trifluoropropyl)malononitrile], in the assay on Blattella germanica, the pest or weed control at 500 ppm amounted to 100%. Also, the pest or weed control at 3.5 ppm with Culex pipiens pallens is 100%.
